Experiments:
[1] = molecular target: T1, recombinant METTL3/METTL14 complex (Homo sapiens, UniProt Q86U44); assay: METTL3/14 Scintillation Proximity Assay (SPA), RNA methyltransferase activity; assay type: biochemical; settings: 5.31 nM METTL3/14 complex, 250 nM RNA substrate, 1 μM 3H-SAM, 90 min; for compounds marked * best of the two separated forms
T1 construct: purchased Active Motif 311970; host or cells: Sf9 cells

Caov-3 cells = assay: Caov-3 cellular viability assay (ATP-Lite, 72 h); assay type: cell-based; settings: Homo sapiens, ATP-Lite luminescence, % viability relative to DMSO
How it was run: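 10000 cells/well treated 72 h at 37 °C, 5% CO2, in RPMI-1640 with 10% FBS and 0.1% DMSO final. Viability by ATP-Lite One Step luminescence. Expressed as % of DMSO control, with IC50 from each compound's concentration-response curve.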

Kasumi-1 cells = assay: Kasumi-1 cellular viability assay (ATP-Lite, 72 h); assay type: cell-based; settings: Homo sapiens, ATP-Lite luminescence, % viability relative to DMSO
How it was run: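 Kasumi-1 AML cells, 15000/well in RPMI-1640 with 10% FBS, were exposed to compound titrations (0.1% final DMSO) for 72 h at 37 °C, 5% CO2. ATP-Lite One Step luminescence gave % viability versus DMSO control, and IC50 came from the concentration-response.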

T1 sequence (Q86U44 whole entry): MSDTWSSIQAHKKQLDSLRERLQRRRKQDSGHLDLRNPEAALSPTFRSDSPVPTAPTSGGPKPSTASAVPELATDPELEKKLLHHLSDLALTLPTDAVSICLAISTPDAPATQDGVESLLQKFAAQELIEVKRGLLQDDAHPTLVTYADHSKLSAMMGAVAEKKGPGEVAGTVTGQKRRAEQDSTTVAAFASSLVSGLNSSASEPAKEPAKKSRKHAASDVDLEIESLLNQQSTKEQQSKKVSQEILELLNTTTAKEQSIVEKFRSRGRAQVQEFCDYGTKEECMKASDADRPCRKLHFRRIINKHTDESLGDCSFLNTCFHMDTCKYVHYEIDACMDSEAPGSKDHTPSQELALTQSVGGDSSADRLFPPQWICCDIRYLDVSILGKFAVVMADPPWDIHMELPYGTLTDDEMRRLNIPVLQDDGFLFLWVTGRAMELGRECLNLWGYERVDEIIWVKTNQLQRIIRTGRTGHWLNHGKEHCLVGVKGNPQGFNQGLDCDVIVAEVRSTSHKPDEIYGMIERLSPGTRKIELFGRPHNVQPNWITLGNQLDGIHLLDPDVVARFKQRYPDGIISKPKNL
T1 sequence (Q9HCE5 whole entry partner): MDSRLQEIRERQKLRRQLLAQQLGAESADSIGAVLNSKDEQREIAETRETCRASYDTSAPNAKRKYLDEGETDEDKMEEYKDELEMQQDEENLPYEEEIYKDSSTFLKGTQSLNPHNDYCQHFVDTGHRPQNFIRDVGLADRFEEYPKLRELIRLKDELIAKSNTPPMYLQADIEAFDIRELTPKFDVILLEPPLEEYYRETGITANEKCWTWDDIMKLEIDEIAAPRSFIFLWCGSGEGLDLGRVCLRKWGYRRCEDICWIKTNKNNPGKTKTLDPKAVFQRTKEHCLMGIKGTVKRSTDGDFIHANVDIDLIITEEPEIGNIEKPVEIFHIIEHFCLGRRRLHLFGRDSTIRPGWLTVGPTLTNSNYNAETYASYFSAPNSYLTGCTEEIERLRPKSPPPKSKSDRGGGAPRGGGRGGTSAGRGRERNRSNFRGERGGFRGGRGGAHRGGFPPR

Structure (SMILES) | IC50 [1] | IC50 (Caov-3 cells) | IC50 (Kasumi-1 cells)
COc1cncc(-c2ncc(Cn3ccc(N4CCC[C@@H](NCC5CCC5)C4)cc3=O)s2)c1 [Compound 097, (R)-4-(3-((cyclobutylmethyl)amino)piperidin-1-yl)-1-((2-(5-methoxypyridin-3-yl)thiazol-5-yl)methyl)pyridin-2(1H)-one] | ≤ 50 nM | ≤ 500 nM | ≤ 500 nM
COc1cncc(-n2cc(Cn3ccc(N4CCC[C@@H](NCC5CCC5)C4)cc3=O)cn2)c1 [Compound 107, (R)-4-(3-((cyclobutylmethyl)amino)piperidin-1-yl)-1-((1-(5-methoxypyridin-3-yl)-1H-pyrazol-4-yl)methyl)pyridin-2(1H)-one] | ≤ 50 nM | ≤ 500 nM | ≤ 500 nM
COc1cncc(-c2cn([C@H](C)n3ccc(N4CCC[C@@H](NCC5CCC5)C4)cc3=S)nn2)c1 [Compound 116, 4-((R)-3-((cyclobutylmethyl)amino)piperidin-1-yl)-1-((R)-1-(4-(5-methoxypyridin-3-yl)-1H-1,2,3-triazol-1-yl)ethyl)pyridine-2(1H)-thione] | ≤ 50 nM | ≤ 500 nM | ≤ 500 nM
COc1cc(-c2cn(Cc3ccc(N4CCC[C@@H](NCC5CCC5)C4)cc3)nn2)c2cn[nH]c2c1 [Compound 123, (R)-N-(cyclobutylmethyl)-1-(4-((4-(6-methoxy-1H-indazol-4-yl)-1-1,2,3-triazol-1-yl)methyl)phenyl)piperidin-3-amine] | ≤ 50 nM | ≤ 500 nM | ≤ 500 nM
COc1cncc(-c2cn(C(C)n3ccc(N4CCC[C@@H](NCC5CCC5)C4)c(F)c3=O)nn2)c1 (stereo partly drawn) [Compound 126, 4-((R)-3-((cyclobutylmethyl)amino)piperidin-1-yl)-3-fluoro-1-(1-(4-(5-methoxypyridin-3-yl)-1H-1,2,3-triazol-1-yl)ethyl)pyridin-2(1H)-one] | ≤ 50 nM | 500 to 5000 nM | > 5000 nM
COc1cncc(-c2cn(C3(c4ccc(N5CCC[C@@H](NCC6CCC6)C5)cc4)COC3)nn2)c1 [Compound 134, (R)-N-(cyclobutylmethyl)-1-(4-(3-(4-(5-methoxypyridin-3-yl)-1H-1,2,3-triazol-1-yl)oxetan-3-yl)phenyl)piperidin-3-amine] | ≤ 50 nM | ≤ 500 nM | ≤ 500 nM
CN(C)c1cncc(-c2cn(Cc3ccc(N4CCC[C@@H](NCC5CCC5)C4)cn3)nn2)c1 [Compound 139, (R)-5-(1-((5-(3-((cyclobutylmethyl)amino)piperidin-1-yl)pyridin-2-yl)methyl)-1H-1,2,3-triazol-4-yl)-N,N-dimethylpyridin-3-amine] | ≤ 50 nM | ≤ 500 nM | ≤ 500 nM
CN(C)c1cncc(-c2cn(Cc3ccc(N4CCC[C@@H](NCC5CCC5)C4)cc3)nn2)c1 [Compound 140] | ≤ 50 nM | ≤ 500 nM | ≤ 500 nM
COc1cncc(-c2cn(Cc3ccc(N4CCC[C@@H](NCC5CCC5)C4)cc3)cn2)c1 [Compound 144, (R)-N-(cyclobutylmethyl)-1-(4-((4-(5-methoxypyridin-3-yl)-1H-imidazol-1-yl)methyl)phenyl)piperidin-3-amine] | ≤ 50 nM | 500 to 5000 nM | 500 to 5000 nM
CN(C)c1cncc(-c2cn(C3(c4ccc(N5CCC[C@@H](NCC6CCC6)C5)cc4)COC3)nn2)c1 [Compound 148, (R)-5-(1-(3-(4-(3-((cyclobutylmethyl)amino)piperidin-1-yl)phenyl)oxetan-3-yl)-1H-1,2,3-triazol-4-yl)-N,N-dimethylpyridin-3-amine] | ≤ 50 nM | ≤ 500 nM | ≤ 500 nM
CN(C)c1cncc(-c2cn(C3(c4ccc(N5CCC[C@@H](NCC6CCC6)C5)cn4)COC3)nn2)c1 [Compound 149, (R)-5-(1-(3-(5-(3-((cyclobutylmethyl)amino)piperidin-1-yl)pyridin-2-yl)oxetan-3-yl)-1H-1,2,3-triazol-4-yl)-N,N-dimethylpyridin-3-amine] | ≤ 50 nM | ≤ 500 nM | ≤ 500 nM
COc1cncc(-c2cn(C3(c4ccc(N5CCC[C@@H](NCC6CCC6)C5)cn4)COC3)nn2)c1 [Compound 150, (R)-N-(cyclobutylmethyl)-1-(6-(3-(4-(5-methoxypyridin-3-yl)-1H-1,2,3-triazol-1-yl)oxetan-3-yl)pyridin-3-yl)piperidin-3-amine] | ≤ 50 nM | ≤ 500 nM | ≤ 500 nM

Continued, in another order:

IC50 [1] | Structure (SMILES) | IC50 (Caov-3 cells) | IC50 (Kasumi-1 cells)
≤ 50 nM | CC(n1cc(-c2cncc(N(C)C)n2)nn1)n1ccc(N2CCC[C@@H](NCC3CCC3)C2)cc1=O (stereo partly drawn) [Compound 164, 4-((R)-3-((cyclobutylmethyl)amino)piperidin-1-yl)-1-(1-(4-(6-(dimethylamino)pyrazin-2-yl)-1H-1,2,3-triazol-1-yl)ethyl)pyridin-2(1H)-one] | ≤ 500 nM | ≤ 500 nM
≤ 50 nM | CC(c1nnc(-c2cncc(N(C)C)c2)s1)n1ccc(N2CCC[C@@H](NCC3CCC3)C2)cc1=O (stereo partly drawn) [Compound 171, 4-((R)-3-((cyclobutylmethyl)amino)piperidin-1-yl)-1-(1-(5-(5-(dimethylamino)pyridin-3-yl)-1,3,4-thiadiazol-2-yl)ethyl)pyridin-2(1H)-one] | ≤ 500 nM | ≤ 500 nM
≤ 50 nM | CC(c1ccc(N2CCC[C@@H](NCC3CCC3)C2)nn1)n1cnc(-c2cncc(N(C)C)c2)c1 (stereo partly drawn) [Compound 173, 5-(1-(1-(6-((R)-3-((cyclobutylmethyl)amino)piperidin-1-yl)pyridazin-3-yl)ethyl)-1H-imidazol-4-yl)-N,N-dimethylpyridin-3-amine] | ≤ 500 nM | ≤ 500 nM
≤ 50 nM | CN(C)c1cncc(-c2cn(Cn3ccc(N4CCC[C@@H](NCC5CC5)C4)cc3=O)nn2)c1 [Compound 174, (R)-4-(3-((cyclopropylmethyl)amino)piperidin-1-yl)-1-((4-(5-(dimethylamino)pyridin-3-yl)-1H-1,2,3-triazol-1-yl)methyl)pyridin-2(1H)-one] | ≤ 500 nM | ≤ 500 nM
≤ 50 nM | CN(C)c1cncc(NC(=O)C2(c3ccc(N4CCC[C@@H](NCC5CC5)C4)cn3)COC2)c1 [Compound 175, (R)-3-(5-(3-((cyclopropylmethyl)amino)piperidin-1-yl)pyridin-2-yl)-N-(5-(dimethylamino)pyridin-3-yl)oxetane-3-carboxamide] | 500 to 5000 nM | 500 to 5000 nM
≤ 50 nM | COc1cncc(-c2cn(C(C)c3ccc(N4CCC[C@@H](NCC5CCC5)C4)nn3)cn2)c1 (stereo partly drawn) [Compound 182, (3R)—N-(cyclobutylmethyl)-1-(6-(1-(4-(5-methoxypyridin-3-yl)-1H-imidazol-1-yl)ethyl)pyridazin-3-yl)piperidin-3-amine] | ≤ 500 nM | 500 to 5000 nM
≤ 50 nM | CN(C)c1cncc(-c2cn(Cc3ccc(N4CCC[C@@H](NCC5CC5)C4)nn3)nn2)c1 [Compound 183, (R)-5-(1-((6-(3-((cyclopropylmethyl)amino)piperidin-1-yl)pyridazin-3-yl)methyl)-1H-1,2,3-triazol-4-yl)-N,N-dimethylpyridin-3-amine] | ≤ 500 nM | 500 to 5000 nM
≤ 50 nM | CN(C)c1cncc(-c2cn(C3(c4ccc(N5CCC[C@@H](NCC6CC6)C5)cn4)COC3)nn2)c1 [Compound 184, (R)-5-(1-(3-(5-(3-((cyclopropylmethyl)amino)piperidin-1-yl)pyridin-2-yl)oxetan-3-yl)-1H-1,2,3-triazol-4-yl)-N,N-dimethylpyridin-3-amine] | ≤ 500 nM | ≤ 500 nM
≤ 50 nM | c1cc(C2(n3cc(-c4cncc(N5CCCC5)n4)nn3)COC2)ncc1N1CCC[C@@H](NCC2CC2)C1 [Compound 185, (R)-N-(cyclopropylmethyl)-1-(6-(3-(4-(6-(pyrrolidin-1-yl)pyrazin-2-yl)-1H-1,2,3-triazol-1-yl)oxetan-3-yl)pyridin-3-yl)piperidin-3-amine] | ≤ 500 nM | ≤ 500 nM
≤ 50 nM | CC(c1ccc(N2CCC[C@@H](NCC3CCC3)C2)cc1)n1cc(-c2cncc(N(C)C)c2)nn1 (stereo partly drawn) [Compound 189, 5-(1-(1-(4-((R)3-((cyclobutylmethyl)amino)piperidin-1-yl)phenyl)ethyl)-1H-1,2,3-triazol-4-yl)-N,N-dimethylpyridin-3-amine] | ≤ 500 nM | ≤ 500 nM
≤ 50 nM | CN(C)c1cncc(-c2cn(C3(c4ccc(N5CCC[C@@H](NCC6CC6)C5)cn4)COC3)nn2)n1 [Compound 192, (R)-6-(1-(3-(5-(3-((cyclopropylmethyl)amino)piperidin-1-yl)pyridin-2-yl)oxetan-3-yl)-1H-1,2,3-triazol-4-yl)-N,N-dimethylpyrazin-2-amine] | ≤ 500 nM | ≤ 500 nM
≤ 50 nM | c1ncc(N2CCCC2)cc1-c1cn(C2(c3ccc(N4CCC[C@@H](NCC5CC5)C4)cn3)COC2)nn1 [Compound 194, (R)-N-(cyclopropylmethyl)-1-(6-(3-(4-(5-(pyrrolidin-1-yl)pyridin-3-yl)-1H-1,2,3-triazol-1-yl)oxetan-3-yl)pyridin-3-yl)piperidin-3-amine] | ≤ 500 nM | ≤ 500 nM
≤ 50 nM | O=C(Nc1cncc(N2CCCC2)c1)C1(c2ccc(N3CCC[C@@H](NCC4CC4)C3)cn2)COC1 [Compound 195, (R)-3-(5-(3-((cyclopropylmethyl)amino)piperidin-1-yl)pyridin-2-yl)-N-(5-(pyrrolidin-1-yl)pyridin-3-yl)oxetane-3-carboxamide] | 500 to 5000 nM | 500 to 5000 nM
